Assay results as given in ChEMBL document CHEMBL1201862, “PubChem BioAssay data set” (2004).
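96-well plates; 48 h exposure; 5 concentrations. Endpoints by linear interpolation between flanking doses. Not reached: highest tested concentration assigned. GI50 = concentration required for 50% inhibition of growth.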 The source made the active and inactive calls. Cut-off read from the data, not from the text of the source: active = GI50 up to about 1.1 µM and inactive = higher. Where a SMILES comes first, the peptide text is derived from it. [ ]: non-standard residue; d: D form. The star is where a group is joined. Chg = N[CH](C(=O)O)C1CCCCC1; Cbz = O=C(OCc1ccccc1)*; OBn = c1ccc(CO*)cc1

Legend:
Assay in all cases: DTP human tumour cell line panel, 48 h
MCF7 = tested on: MCF7
RPMI-8226 = tested on: RPMI-8226
MOLT-4 = tested on: MOLT-4
T47D = tested on: T47D
SN12C = tested on: SN12C
SR = tested on: SR
NCI-H23 = tested on: NCI-H23
UO-31 = tested on: UO-31
HL-60 = tested on: HL-60
M14 = tested on: M14
PC-3 = tested on: PC-3
DU-145 = tested on: DU-145
HOP-92 = tested on: HOP-92
HCC 2998 = tested on: HCC 2998
SF-295 = tested on: SF-295
MDA-MB-231 = tested on: MDA-MB-231
EKVX = tested on: EKVX
SNB-75 = tested on: SNB-75
OVCAR-4 = tested on: OVCAR-4
Malme-3M = tested on: Malme-3M

Measured: GI50

COC(=O)C(NC(=O)C(CC(=O)OCc1ccccc1)NC(=O)OCc1ccccc1)C1CCCCC1 (stereo not given) (Cbz-Asp(OBn)-[Chg]-OMe; configuration not given here)
inactive: MCF7 > 100 µM | RPMI-8226 48.2 µM | MOLT-4 38.3 µM | T47D 48 µM | SN12C > 100 µM | SR 59 µM | NCI-H23 > 100 µM | UO-31 69.7 µM | HL-60 > 100 µM | M14 > 100 µM | PC-3 > 100 µM | DU-145 > 100 µM | HOP-92 21.7 µM | HCC 2998 > 100 µM | SF-295 67.3 µM | MDA-MB-231 84.3 µM | EKVX > 100 µM | SNB-75 62.8 µM | OVCAR-4 > 100 µM | Malme-3M > 100 µM

NC1=Nc2cc(C(F)(F)F)ccc2Sc2nc3ccccc3n21
inactive: MCF7 > 76.9 µM | RPMI-8226 6.25 µM | MOLT-4 4.24 µM | T47D 26.6 µM | SN12C 57.5 µM | SR 3.61 µM | NCI-H23 31.3 µM | UO-31 > 20.5 µM | HL-60 3.15 µM | M14 3.98 µM | PC-3 10.3 µM | DU-145 > 94.6 µM | HOP-92 7.6 µM | HCC 2998 > 94.8 µM | SF-295 > 57.9 µM | MDA-MB-231 38.1 µM | EKVX 13.8 µM | SNB-75 19.9 µM | OVCAR-4 17.7 µM | Malme-3M > 86.1 µM

Cn1cc(S(=O)(=O)NC(=O)Nc2ccc(Cl)cc2)c2ccccc21
inactive: MCF7 56 µM | RPMI-8226 > 100 µM | MOLT-4 > 100 µM | T47D 28.6 µM | SN12C > 100 µM | SR > 100 µM | NCI-H23 > 100 µM | UO-31 44.8 µM | HL-60 > 100 µM | M14 > 100 µM | PC-3 43.9 µM | DU-145 49.2 µM | HOP-92 > 100 µM | HCC 2998 51.4 µM | SF-295 43.6 µM | MDA-MB-231 > 100 µM | EKVX > 100 µM | SNB-75 > 100 µM | OVCAR-4 > 100 µM | Malme-3M > 100 µM

COC(=O)C(Cc1c[nH]c2ccccc12)NP(=O)(O)OCC1OC(n2cc(F)c(=O)[nH]c2=O)CC1O (stereo not given)
inactive: MCF7 7.35 µM | RPMI-8226 31.3 µM | MOLT-4 10.1 µM | T47D > 32.5 µM | SN12C > 64.4 µM | SR 5.02 µM | NCI-H23 > 56 µM | UO-31 23.2 µM | HL-60 40.9 µM | M14 30.8 µM | PC-3 > 51.1 µM | DU-145 43.9 µM | HOP-92 31.4 µM | HCC 2998 99.3 µM | SF-295 > 91.2 µM | MDA-MB-231 > 100 µM | EKVX > 100 µM | SNB-75 > 63.7 µM | OVCAR-4 > 100 µM | Malme-3M > 100 µM

CCCCCCCC1C(C)c2c([nH]c3ccccc23)C2C(=O)N(c3ccc(OC)cc3)C(=O)C21 (stereo not given)
inactive: MCF7 4.6 µM | RPMI-8226 > 5.73 µM | MOLT-4 3.2 µM | T47D 3.79 µM | SN12C 2.59 µM | SR 2.84 µM | NCI-H23 2.39 µM | UO-31 2.51 µM | HL-60 1.95 µM | M14 2.74 µM | PC-3 4.68 µM | DU-145 > 8.3 µM | HOP-92 > 10 µM | HCC 2998 7.6 µM | SF-295 2.58 µM | MDA-MB-231 3.82 µM | EKVX 3.97 µM | SNB-75 1.95 µM | OVCAR-4 2.9 µM | Malme-3M > 4.86 µM

COc1cc(/C=C2/SC(c3ccccc3)N(c3ccc(Cl)cc3)C2=O)cc(OC)c1OC (stereo not given)
active: M14 0.964 µM
inactive: MCF7 3.96 µM | RPMI-8226 2.99 µM | MOLT-4 15.7 µM | T47D 3.94 µM | SN12C > 32 µM | SR 7.6 µM | NCI-H23 17.9 µM | UO-31 10.9 µM | HL-60 10.1 µM | PC-3 28.6 µM | DU-145 > 100 µM | HOP-92 > 100 µM | HCC 2998 > 100 µM | SF-295 3.27 µM | MDA-MB-231 > 100 µM | EKVX > 52.6 µM | SNB-75 95.3 µM | OVCAR-4 7.98 µM | Malme-3M 27 µM

CCOC(=O)C1C(=O)CC(O)(c2ccccc2)C(C(=O)OCC)C1c1ccc(N(C)C)cc1 (stereo not given)
inactive: MCF7 21.8 µM | RPMI-8226 13.3 µM | MOLT-4 23.5 µM | T47D 27.6 µM | SN12C 50.2 µM | SR 7.33 µM | NCI-H23 > 45.7 µM | UO-31 49.8 µM | HL-60 8.18 µM | M14 35.6 µM | PC-3 18.3 µM | DU-145 57.1 µM | HOP-92 19.7 µM | HCC 2998 34.4 µM | SF-295 5.71 µM | MDA-MB-231 28.2 µM | EKVX 40.9 µM | SNB-75 24.9 µM | OVCAR-4 59.2 µM | Malme-3M 18.2 µM

CC(C)(C)N/N=C(/Cc1nc2c3c(ccc2nc1O)C(=O)c1ccccc1C3=O)C(=O)NC1=C(Cl)C(=O)c2ccccc2C1=O
inactive: MCF7 20 µM | RPMI-8226 78.9 µM | MOLT-4 23.2 µM | T47D 23.3 µM | SN12C 17 µM | SR 27.7 µM | NCI-H23 42.1 µM | UO-31 4.91 µM | HL-60 10.3 µM | M14 15.5 µM | PC-3 7.71 µM | DU-145 21.8 µM | HOP-92 31.6 µM | HCC 2998 17.9 µM | SF-295 39.4 µM | MDA-MB-231 1.98 µM | EKVX 61.2 µM | SNB-75 2.38 µM | OVCAR-4 5.16 µM | Malme-3M 12.3 µM

O=C1c2ccccc2C2CNC1(O)c1ccccc12 (stereo not given)
inactive: MCF7 > 100 µM | RPMI-8226 > 100 µM | MOLT-4 > 100 µM | T47D > 100 µM | SN12C > 100 µM | SR > 100 µM | NCI-H23 > 100 µM | UO-31 > 100 µM | HL-60 > 100 µM | M14 > 100 µM | PC-3 > 100 µM | DU-145 > 100 µM | HOP-92 > 100 µM | HCC 2998 > 100 µM | SF-295 > 100 µM | MDA-MB-231 > 100 µM | EKVX > 100 µM | SNB-75 > 100 µM | OVCAR-4 > 100 µM | Malme-3M > 100 µM

O=c1c2ccccc2nc(-c2cc3c(cc2Cl)Sc2nccn2S3(=O)=O)n1-c1ccccc1
inactive: MCF7 14.2 µM | RPMI-8226 12.9 µM | MOLT-4 > 100 µM | T47D 8.93 µM | SN12C 45.5 µM | SR 67.6 µM | NCI-H23 62.5 µM | UO-31 16.6 µM | HL-60 4.13 µM | M14 > 100 µM | PC-3 16.5 µM | DU-145 20.8 µM | HOP-92 22.9 µM | HCC 2998 15.1 µM | SF-295 21.6 µM | MDA-MB-231 18.4 µM | EKVX 21.4 µM | SNB-75 21.4 µM | OVCAR-4 17.9 µM | Malme-3M > 100 µM

Nc1ccc2c(=O)cc(-c3cccs3)[nH]c2n1
active: SR 0.151 µM | HL-60 0.234 µM
inactive: MCF7 1.12 µM | RPMI-8226 1.54 µM | MOLT-4 1.51 µM | T47D 3.13 µM | SN12C 5.16 µM | NCI-H23 2.89 µM | UO-31 3.54 µM | M14 1.6 µM | PC-3 1.74 µM | DU-145 5.9 µM | HOP-92 9.1 µM | HCC 2998 2.19 µM | SF-295 3.1 µM | MDA-MB-231 11.8 µM | EKVX 6.5 µM | SNB-75 2.46 µM | OVCAR-4 > 35.7 µM | Malme-3M 8.18 µM

Cc1ccccc1C(=O)N/N=C/c1ccc(Sc2nccn2C)c([N+](=O)[O-])c1
inactive: MCF7 > 100 µM | RPMI-8226 47.9 µM | MOLT-4 54.6 µM | T47D 45.3 µM | SN12C > 100 µM | SR 40 µM | NCI-H23 > 100 µM | UO-31 > 100 µM | HL-60 44.3 µM | M14 > 100 µM | PC-3 67.8 µM | DU-145 88.3 µM | HOP-92 14.3 µM | HCC 2998 45.3 µM | SF-295 58.5 µM | MDA-MB-231 72.3 µM | EKVX 64.9 µM | SNB-75 63.2 µM | OVCAR-4 56.2 µM | Malme-3M 69.3 µM

COc1cc2c(NCCCCCCO[N+](=O)[O-])ncnc2c(OC)c1OC
inactive: MCF7 17.6 µM | RPMI-8226 10.2 µM | MOLT-4 16.5 µM | T47D 23.8 µM | SN12C 28.7 µM | SR 9.75 µM | NCI-H23 19.1 µM | UO-31 7.93 µM | HL-60 23.9 µM | M14 16.9 µM | PC-3 20.7 µM | DU-145 24.5 µM | HOP-92 14.6 µM | SF-295 21.1 µM | MDA-MB-231 14.2 µM | EKVX 22.5 µM | SNB-75 > 69.5 µM | OVCAR-4 50.4 µM | Malme-3M 13.1 µM
active: HCC 2998 0.399 µM
